The values that follow come from patent US8076487B2, “Pyridone derivative and herbicide” (Kumiai Chemical Industry Co., Ltd., priority 2006, dated 2011).

SMILES strings stand for the structures.

Common to all, as to assay type: in vivo
Experiment [1] deals with barnyardgrass (Echinochloa crus-galli (L.) P. Beauv. var. crus-galli). Kind of experiment: Test Example 3: herbicidal effect by application to upland field (foliage treatment). Particulars: 14th day after application; for herbicidal effect, Barnyardgrass: foliage treatment, 1,000 g active ingredient per 1 hectare, greenhouse; for herbicidal effect (index), Barnyardgrass: foliage treatment, plants grown two weeks, 1,000 g active ingredient per hectare. Summed up:
(§1)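 Foliage treatment, greenhouse: 2-week-old plants in field soil; wettable powder in water sprayed over the top at 1,000 g a.i./ha (1,000 L/ha); rating on day 14 post-application.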

Experiment [2] concerns slender amaranth (Amaranthus viridis L.). The description is as above. Particulars: 14th day after application; for herbicidal effect, Slender Amaranth: foliage treatment, 1,000 g active ingredient per 1 hectare, greenhouse; for herbicidal effect (index), Slender Amaranth: foliage treatment, plants grown two weeks, 1,000 g active ingredient per hectare. In a few lines:
as §1

For experiment [3], the system named is green foxtail (Setaria viridis (L.) P. Beauv.). The experiment is described as above. Particulars: 14th day after application; for herbicidal effect, Green Foxtail: foliage treatment, 1,000 g active ingredient per 1 hectare, greenhouse; for herbicidal effect (index), Green Foxtail: foliage treatment, plants grown two weeks, 1,000 g active ingredient per hectare. In a few lines: as §1

The test system of experiment [4] is velvetleaf (Abutilon theophrasti medicus). The description is as above. Particulars: 14th day after application; for herbicidal effect, Velvetleaf: foliage treatment, 1,000 g active ingredient per 1 hectare, greenhouse; for herbicidal effect (index), Velvetleaf: foliage treatment, plants grown two weeks, 1,000 g active ingredient per hectare. Summed up: as §1
The subject of experiment [5] is Japanese bulrush (Scirpus juncoides Roxb.). Kind of experiment: Test Example 1: herbicidal effect by soil application to paddy field. The conditions noted are these: paddy field soil application; active ingredient 1,000 g per 1 hectare; wettable powder added dropwise to water surface the day after sowing; examined on the 21st day after application. In a few lines:
(§2)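 Under greenhouse conditions, seeds sown on puddled paddy soil in 100 cm2 pots under 3 cm of standing water received the test compound; injury was assessed with a standard scoring scheme three weeks (day 21) after treatment.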

Experiment [6] relates to early watergrass (Echinochloa oryzicola Vasing). The description is as above. Particulars: paddy field soil application; active ingredient 1,000 g per 1 hectare; wettable powder added dropwise to water surface the day after sowing; examined on the 21st day after application. In a few lines: as §2
In experiment [7] the test system is heartshape false pickerelweed (Monochoria vaginalis (Burm.f.) C.Presl). The experiment is described as above. The conditions noted are these: paddy field soil application; active ingredient 1,000 g per 1 hectare; wettable powder added dropwise to water surface the day after sowing; examined on the 21st day after application. In a few lines:
as §2

Experiment [8] relates to barnyardgrass (Echinochloa crus-galli (L.) P. Beauv. var. crus-galli). Kind of experiment: Test Example 2: herbicidal effect by soil application to upland field. Particulars: soil surface spray, upland field soil, 1,000 g active ingredient per hectare, 21st day after application. In a few lines:
(§3)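 After sowing and covering, the soil received an even aqueous spray of wettable powder at a rate of 1,000 g active ingredient/ha (1,000 L/ha). Ratings of herbicidal effect followed a standard scale 21 days post-treatment, with plants held in a greenhouse.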

In experiment [9] the test system is slender amaranth (Amaranthus viridis L.). Described as above. The conditions noted are these: soil surface spray, upland field soil, 1,000 g active ingredient per hectare, 21st day after application. Summed up: as §3
Experiment [10] deals with green foxtail (Setaria viridis (L.) P. Beauv.). The description is as above. The conditions noted are these: soil surface spray, upland field soil, 1,000 g active ingredient per hectare, 21st day after application. In a few lines:
as §3

Experiment [11] has as its system velvetleaf (Abutilon theophrasti medicus). The description is as above. Particulars: soil surface spray, upland field soil, 1,000 g active ingredient per hectare, 21st day after application. In a few lines:
as §3

In the case of `O=C1CCCC(O)=C1C(=O)c1ccc(C(F)(F)F)n(NCC2CCCO2)c1=O` (centres unmarked) [I-170], the “herbicidal effect, Barnyardgrass” value in experiment [1] is 5 (90% or more of herbicidal effect and crop phytotoxicity). Further, in experiment [2], the “herbicidal effect, Slender Amaranth” value is 5 (90% or more of herbicidal effect and crop phytotoxicity). In experiment [3], the “herbicidal effect, Green Foxtail” value is 4 (70 to less than 90% of herbicidal effect and crop phytotoxicity). Further, the “herbicidal effect, Velvetleaf” value in [4] was 5 (90% or more of herbicidal effect and crop phytotoxicity). Also, the “herbicidal effect, Scirpus juncoides Roxb.” value in [5] was 5 (90% or more of herbicidal effect and crop phytotoxicity). For the same molecule, the “herbicidal effect, Echinochloa oryzicola Vasing” value in experiment [6] is 5 (90% or more of herbicidal effect and crop phytotoxicity). Moreover, the “herbicidal effect, Monochoria vaginalis (Burm. f.) C. Presl” value (“herbicidal effect, Monochoria vaginalis” below) in experiment [7] is 5 (90% or more of herbicidal effect and crop phytotoxicity). The “herbicidal effect (index), Barnyardgrass” value in experiment [8] is 5 (90% or more of herbicidal effect and crop phytotoxicity). Also, the “herbicidal effect (index), Slender Amaranth” value in [9] is 5 (90% or more of herbicidal effect and crop phytotoxicity). Moreover, in experiment [10], the “herbicidal effect (index), Green Foxtail” value is 5 (90% or more of herbicidal effect and crop phytotoxicity). Further, the “herbicidal effect (index), Velvetleaf” value in [11] is 5 (90% or more of herbicidal effect and crop phytotoxicity).

Turning to `Cn1ncc(C(=O)c2ccc(C(F)(F)F)n(-c3ccccc3)c2=O)c1O` [IV-62], the “herbicidal effect, Barnyardgrass” value in experiment [1] was 5 (90% or more of herbicidal effect and crop phytotoxicity). The “herbicidal effect, Slender Amaranth” value in experiment [2] is 5 (90% or more of herbicidal effect and crop phytotoxicity). In experiment [3], the “herbicidal effect, Green Foxtail” value was 5 (90% or more of herbicidal effect and crop phytotoxicity). Moreover, the “herbicidal effect, Velvetleaf” value in experiment [4] is 5 (90% or more of herbicidal effect and crop phytotoxicity). Besides, the “herbicidal effect, Scirpus juncoides Roxb.” value in experiment [5] was 5 (90% or more of herbicidal effect and crop phytotoxicity). Moreover, the “herbicidal effect, Echinochloa oryzicola Vasing” value in [6] is 5 (90% or more of herbicidal effect and crop phytotoxicity). In [7], the “herbicidal effect, Monochoria vaginalis” value is 5 (90% or more of herbicidal effect and crop phytotoxicity). Besides, in experiment [8], the “herbicidal effect (index), Barnyardgrass” value was 5 (90% or more of herbicidal effect and crop phytotoxicity). In addition, the “herbicidal effect (index), Slender Amaranth” value in experiment [9] was 5 (90% or more of herbicidal effect and crop phytotoxicity). Further, the “herbicidal effect (index), Green Foxtail” value in [10] was 5 (90% or more of herbicidal effect and crop phytotoxicity). Also, the “herbicidal effect (index), Velvetleaf” value in experiment [11] was 5 (90% or more of herbicidal effect and crop phytotoxicity).

On to `O=C1CCCC(O)=C1C(=O)c1ccc(C(F)(F)F)n(C2CC2)c1=O` [I-16], for which the “herbicidal effect (index), Barnyardgrass” value in experiment [1] is 5 (90% or more of herbicidal effect and crop phytotoxicity); in experiment [8], 5 (90% or more of herbicidal effect and crop phytotoxicity). The “herbicidal effect (index), Slender Amaranth” value in [2] is 5 (90% or more of herbicidal effect and crop phytotoxicity); in [9], 5 (90% or more of herbicidal effect and crop phytotoxicity). Further, the “herbicidal effect (index), Green Foxtail” value in [3] is 5 (90% or more of herbicidal effect and crop phytotoxicity); in [10], 5 (90% or more of herbicidal effect and crop phytotoxicity). Besides, the “herbicidal effect (index), Velvetleaf” value is 5 (90% or more of herbicidal effect and crop phytotoxicity) in [4]; 5 (90% or more of herbicidal effect and crop phytotoxicity) in experiment [11]. In [5], the “herbicidal effect, Scirpus juncoides Roxb.” value is 5 (90% or more of herbicidal effect and crop phytotoxicity). For the same molecule, the “herbicidal effect, Echinochloa oryzicola Vasing” value in [6] was 5 (90% or more of herbicidal effect and crop phytotoxicity). In experiment [7], the “herbicidal effect, Monochoria vaginalis” value is 5 (90% or more of herbicidal effect and crop phytotoxicity).

With `O=C1CCCC(O)=C1C(=O)c1ccc(C(F)(F)F)n(-c2cc([N+](=O)[O-])ccc2F)c1=O` [I-107], the “herbicidal effect (index), Barnyardgrass” value in experiment [1] is 5 (90% or more of herbicidal effect and crop phytotoxicity); in experiment [8], 5 (90% or more of herbicidal effect and crop phytotoxicity). The “herbicidal effect (index), Slender Amaranth” value in [2] is 5 (90% or more of herbicidal effect and crop phytotoxicity); in experiment [9], 5 (90% or more of herbicidal effect and crop phytotoxicity). The “herbicidal effect (index), Green Foxtail” value in experiment [3] is 3 (50 to less than 70% of herbicidal effect and crop phytotoxicity); in [10], 5 (90% or more of herbicidal effect and crop phytotoxicity). Besides, the “herbicidal effect (index), Velvetleaf” value is 5 (90% or more of herbicidal effect and crop phytotoxicity) in experiment [4]; 5 (90% or more of herbicidal effect and crop phytotoxicity) in experiment [11]. Moreover, the “herbicidal effect, Scirpus juncoides Roxb.” value in experiment [5] was 5 (90% or more of herbicidal effect and crop phytotoxicity). Moreover, in experiment [6], the “herbicidal effect, Echinochloa oryzicola Vasing” value is 5 (90% or more of herbicidal effect and crop phytotoxicity). Further, the “herbicidal effect, Monochoria vaginalis” value in experiment [7] is 5 (90% or more of herbicidal effect and crop phytotoxicity).

Regarding `C=CCn1c(C(F)(F)F)ccc(C(=O)C2=C(O)CCCC2=O)c1=O` [I-11], the “herbicidal effect (index), Barnyardgrass” value in [1] was 5 (90% or more of herbicidal effect and crop phytotoxicity); in experiment [8] it was 5 (90% or more of herbicidal effect and crop phytotoxicity). Also, the “herbicidal effect (index), Slender Amaranth” value is 5 (90% or more of herbicidal effect and crop phytotoxicity) in [2]; 5 (90% or more of herbicidal effect and crop phytotoxicity) in experiment [9]. The “herbicidal effect (index), Green Foxtail” value is 5 (90% or more of herbicidal effect and crop phytotoxicity) in experiment [3]; 4 (70 to less than 90% of herbicidal effect and crop phytotoxicity) in experiment [10]. Moreover, the “herbicidal effect (index), Velvetleaf” value in [4] is 5 (90% or more of herbicidal effect and crop phytotoxicity); in experiment [11], 5 (90% or more of herbicidal effect and crop phytotoxicity). Further, the “herbicidal effect, Scirpus juncoides Roxb.” value in experiment [5] is 5 (90% or more of herbicidal effect and crop phytotoxicity). Further, the “herbicidal effect, Echinochloa oryzicola Vasing” value in experiment [6] is 5 (90% or more of herbicidal effect and crop phytotoxicity). Moreover, the “herbicidal effect, Monochoria vaginalis” value in experiment [7] is 5 (90% or more of herbicidal effect and crop phytotoxicity).

For `CC(C)Cn1c(C(F)(F)F)ccc(C(=O)C2=C(O)CCCC2=O)c1=O` [I-6], the “herbicidal effect (index), Barnyardgrass” value is 5 (90% or more of herbicidal effect and crop phytotoxicity) in experiment [1]; 5 (90% or more of herbicidal effect and crop phytotoxicity) in experiment [8]. Moreover, the “herbicidal effect (index), Slender Amaranth” value in [2] is 5 (90% or more of herbicidal effect and crop phytotoxicity); in [9], 5 (90% or more of herbicidal effect and crop phytotoxicity). Also, the “herbicidal effect (index), Green Foxtail” value is 5 (90% or more of herbicidal effect and crop phytotoxicity) in [3]; 5 (90% or more of herbicidal effect and crop phytotoxicity) in [10]. Further, the “herbicidal effect (index), Velvetleaf” value is 5 (90% or more of herbicidal effect and crop phytotoxicity) in experiment [4]; 5 (90% or more of herbicidal effect and crop phytotoxicity) in [11]. Further, in [5], the “herbicidal effect, Scirpus juncoides Roxb.” value is 5 (90% or more of herbicidal effect and crop phytotoxicity). The “herbicidal effect, Echinochloa oryzicola Vasing” value in experiment [6] is 5 (90% or more of herbicidal effect and crop phytotoxicity). In addition, the “herbicidal effect, Monochoria vaginalis” value in experiment [7] was 5 (90% or more of herbicidal effect and crop phytotoxicity).

As to `O=C1CCCC(O)=C1C(=O)c1ccc(C(F)(F)F)n(-c2cccc(F)c2)c1=O` [I-92], the “herbicidal effect (index), Barnyardgrass” value is 5 (90% or more of herbicidal effect and crop phytotoxicity) in experiment [1]; 5 (90% or more of herbicidal effect and crop phytotoxicity) in experiment [8]. The “herbicidal effect (index), Slender Amaranth” value in experiment [2] is 5 (90% or more of herbicidal effect and crop phytotoxicity); in experiment [9], 5 (90% or more of herbicidal effect and crop phytotoxicity). In addition, the “herbicidal effect (index), Green Foxtail” value is 5 (90% or more of herbicidal effect and crop phytotoxicity) in [3]; 5 (90% or more of herbicidal effect and crop phytotoxicity) in experiment [10]. In addition, the “herbicidal effect (index), Velvetleaf” value in experiment [4] is 5 (90% or more of herbicidal effect and crop phytotoxicity); in experiment [11], 5 (90% or more of herbicidal effect and crop phytotoxicity). For the same molecule, the “herbicidal effect, Scirpus juncoides Roxb.” value in experiment [5] is 5 (90% or more of herbicidal effect and crop phytotoxicity). Also, the “herbicidal effect, Echinochloa oryzicola Vasing” value in [6] was 5 (90% or more of herbicidal effect and crop phytotoxicity). Besides, the “herbicidal effect, Monochoria vaginalis” value in experiment [7] is 5 (90% or more of herbicidal effect and crop phytotoxicity).
